We go through four substances from paper doi:10.1101/2024.07.26.605352v1, “In-vitro Metabolite Identification for MEDI7219, an Oral GLP-1 Peptide, using LC-MS/MS with CID and EAD Fragmentation” (bioRxiv, 2024).

Series [1] concerns Pancreatin from porcine pancreas. Briefly: In vitro incubation of MEDI7219 with pancreatin in PBS, LC-MS/MS metabolite identification and relative quantification. The format is in vitro ADME. The following applies: for Time at which fractional abundance peaked: pancreatin 3 mg/ml in PBS, 37 °C, sampling 0.5-6 h. Here is the method:
MEDI7219 solution (10 µg/ml) was incubated with pancreatin (3 mg/ml) in pre-warmed PBS buffer at 37 °C for 0.5 h, 1 h, 2 h, 4 h and 6 h. A negative control sample was prepared as pancreatin in PBS buffer without MEDI7219 spiked in. A time zero sample was prepared as MEDI7219 in PBS without pancreatin. At each time point, 100 µl was sampled and quenched with 200 µl of acetonitrile. The quenched solution was centrifuged at 6000 g for 10 min. Supernatant was diluted 5-fold in mobile phase A (0.1 % formic acid in water) and 40 µl was injected to LC-MS/MS. Same LC-MS system was used here as structural characterization experiment. A longer LC gradient was applied where 20 % B was increased to 60 % B within 8 min.
For MS method, DDA (data dependent acquisition) experiment was used where ions in range of 800-1250 Da were selected for MS/MS. Same key settings for CID and EAD established in the structural characterization experiment described above were applied in MS method here.
Data were analyzed using Molecule Profiler beta version 1.3.2 (MP, SCIEX) beta version. Raw data from incubation at each time point was analyzed against the pancreatin blank sample in the MP software. […] Amino acid sequence for MEDI7219 was entered as a processing parameter. Non-natural amino acids including α-methyl-L-alanine, α-methyl-L-phenylalanine, α-methyl-L-serine, α-methyl-L-lysine, as well as side-chain lipid on lysine (C35H63N5O11) were added as custom elements by providing molecular formula in the software. Peptide method was used to match all peptide fragment peaks with full lipid side chain. Both MS1 and MS2 were used for peak finding based on mass tolerance of 15 ppm. For MS parameters, charge states 2-5 were included in the search. For MS/MS parameters, theoretical b, y, c’, z· as well as y|a and y|b internal fragment ions were searched with mass tolerance of 15 ppm. Default Biologics biotransformation set was used in the processing method. For quantification, all isotope peaks as part of a cluster and multiple charge states of the same peptide were summed for peak area. Results from individual timepoints were consolidated in Correlation analysis with 0.1 min retention time (RT) tolerance and 15 ppm m/z tolerance to yield the final list of metabolites and peak areas from all samples.
Pancreatin was chosen for the in vitro evaluation because the site of maximal gastrointestinal absorption for MEDI7219 oral peptide was small intestine and proximal colon ([Pechenov et al., 2021]). […]
For relative quantification, after correlation analysis in MP software and exporting XIC peak areas, we calculated fractional abundance of each metabolite over the incubation period (Figure 4). […]

The test system of a further series is pancreatin. As to conditions: result in words; ref Pechenov et al., 2021; cited from earlier work. The source says:
Systematic multi-disciplinary approach to engineering led to rational selection of the clinical lead, MEDI7219, a GLP-1 peptide with bis-lipidation and 12 amino acid substitutions and 5 α- methyl modifications ([Pechenov et al., 2021]). […] This measurement was done using HPLC with MEDI7219 detection by UV absorption at 210 nm. In this study, we identified key metabolites from MEDI7219 ... || For relative quantification, after correlation analysis in MP software and exporting XIC peak areas, we calculated fractional abundance of each metabolite over the incubation period (Figure 4). This was taken as a percent of XIC peak area of each metabolite over total peak area of all metabolites at a given timepoint (Table S2). Parent peptide decreased quickly in this experiment compared to the 60 % remained intact after 2 h in previous publication ([Pechenov et al., 2021]). The enzyme to substrate ratio was higher in this study compared to Pechenov et al. as the assay condition was optimized ...

The conditions of series [2]: result in words; ref Pechenov et al., 2021; cited from earlier work. An excerpt:
Semaglutide was the first approved oral GLP-1 receptor agonist ([Mahapatra et al., 2022]) and it incorporated peptide engineering approaches such as unnatural amino acid substitution to protect proteolytic sites, and lipidation to promote plasma protein binding to reduce renal clearance.

Take “HαAEGSαFTSDVαSSsidechainKLEGEAAαKEαFIAsidechainK VVEGG [MEDI7219, orally-bioavailable GLP-1 peptide with bis-lipidation, 12 amino acid substitutions and 5 α-methyl modifications; clinical candidate]”: the “Parent peptide in metabolite chromatograms over pancreatin incubation” value in series [1] (summed XIC chromatograms, 0-6 h, CID data, result in words) was “still present at 0.5 h although no longer the prominent species, and it decreased significantly after 2 h”. Moreover, the “Number of distinct cleavage sites” value in series [1] (the 13 metabolites mapped on the MEDI7219 structure) stood at 8. The “Proteolytic stability compared with wild type or semaglutide” value in the series with pancreatin is given as “proteolytically more stable than the wild type or semaglutide”.

On to “HαAEGSαFTSDVαSSsidechainK [Metabolite M13, metabolite of MEDI7219 identified after incubation with pancreatin]”, for which the “Time at which fractional abundance peaked” value in series [1] worked out at 0.5 h.

As for “HαAEGSαFTSDVαSSsidechainKLEGEAAαKEαFIAsidechainK [Metabolite M2, metabolite of MEDI7219 identified after incubation with pancreatin]”, the “Time at which fractional abundance peaked” value in series [1] was found to be 0.5 h.

For semaglutide, the “Degradation in GI tract” value in series [2] is recorded as “rapidly degraded in GI tract”.
